According to patent US11712434B2, “Compound having anti-cancer effect, and preparation method therefor and use thereof” (3D MEDICINES (BEIJING) CO., LTD., priority 2016, dated 2023):

Columns and labels:
Assay in all cases: Cell proliferation assay (Alamar Blue)
Type in all cases: cell-based
[1] = system: KM12; settings: KM12 tumor cell line, 6 days culture
Procedure: (§1) 1. Instruments and Materials • Thermo 311 CO2 incubator; Haier biosafety cabinet; Molecular Devices microplate reader; Xiangyi brand L530 desktop low speed centrifuge; Olympus IX51 inverted fluorescence microscope, DMEM, RPMI 1640, MEM, DMEM/F12 1:1 medium, Fetal bovine serum, 0.25% trypsin solution, phosphate buffer (Thermo Fisher Shanghai Co., Ltd.); sigma dimethyl sulfoxide (DMSO), resazurin; 54 commercial tumor cell lines (including 26 liver cancer cell lines). Experimental drugs: compounds 1-12 and active drug Linifanib; chemotherapeutic drug Doxorubicin (HY-15142; Shanghai Qianyuan Biomedical Technology Co., Ltd.).
(§2) 2. Experimental Methods • 2.1 Cultivation of Different Cell Lines • 54 cell lines were cultured in a culture medium containing fetal bovine serum and placed in a 5% CO2 incubator at 37° C. for incubation. The cells were all grown in an adherent state, and the growth was observed under an inverted microscope, and subculture was performed when the cell confluence rate reached 80%-90%. The proportion and quantity of passage were determined by experimental needs. The ratio of subculture of this cell line was generally 1:2^˜1:3. • 2.2 Inhibition Effect on the Proliferation of Different Tumor Cell Lines • Cell test: 54 cell lines in logarithmic growth phase were inoculated in 96-well culture plates at 500^˜1×10^4/well (the optimal seeding density of each cell line was determined in pre-experiment), After incubating at 37° C. for 4 h in a 5% CO2 humidification incubator, added 10 μL of compounds 1-12 or Linifanib to each well, and tested 9 drug concentration gradients for each compound (diluted from the highest concentration of the test by 3.16 times). The solubility of each compound was different at a starting concentration of 100 or 30 μM, respectively. The QC reference compound Doxorubicin was added simultaneously to each cell line test, and the final drug concentrations were 10, 3.16, 1, 0.31, 0.1, 0.03, 0.01, 0.003, and 0.001 μM, respectively. In addition, a positive control group (100% inhibition) and a negative control group (0% inhibition) were set at the same time. The drug group was repeated for 2 wells per concentration, and the positive control group and the negative control group were repeated for 6 wells. After the culture was continued for 6 days in the incubator, AlamarBlue test operation was followed; • AlamarBlue test procedure: Incubated with 10 μL of AlamarBlue reagent per well for 1-4 h, shook for 1-2 min, MD microplate reader EX: 560 nm, EM: 590 nm wavelength to measure fluorescence, recorded the results, calculated the cell inhibition rate of the compound of the invention. Cell inhibition rate (%)=(A0% inhibition−A administration)/(A0% inhibition−A100% inhibition)×100%, and then using the method of nonlinear regression using GraphPad Prism 5.0 or MATILAB software (usually using four parameters) to graph and obtain a drug dose response curve to obtain an IC50 value of the compound of the present invention acting on a cancer cell line.

[2] = system: SNU354; settings: SNU354 liver cancer cell line, 6 days culture
Procedure: as §1, §2

[3] = system: JHH5; settings: JHH5 liver cancer cell line, 6 days culture
Procedure: as §1, §2

[4] = system: NCI-H716; settings: NCI-H716 tumor cell line, 6 days culture
Procedure: as §1, §2

[5] = system: MDA-MB-435S; settings: MDA-MB-435S tumor cell line, 6 days culture
Procedure: as §1, §2

[6] = system: MG63; settings: MG63 tumor cell line, 6 days culture
Procedure: as §1, §2

[7] = system: JHH2; settings: JHH2 liver cancer cell line, 6 days culture
Procedure: as §1, §2

[8] = system: NCI-H1703; settings: NCI-H1703 (lung cancer cells), 6 days culture
Procedure: as §1, §2

[9] = system: SK-HEP-1; settings: SK-HEP-1 liver cancer cell line, 6 days culture
Procedure: as §1, §2

[10] = system: 22RV1; settings: 22RV1 tumor cell line, 6 days culture
Procedure: as §1, §2

[11] = system: SNU475; settings: SNU475 liver cancer cell line, 6 days culture
Procedure: as §1, §2

[12] = system: HLF; settings: HLF liver cancer cell line, 6 days culture
Procedure: as §1, §2

[13] = system: HUH6; settings: HUH6 liver cancer cell line, 6 days culture
Procedure: as §1, §2

[14] = system: SNU449; settings: SNU449 liver cancer cell line, 6 days culture
Procedure: as §1, §2

[15] = system: JHH1; settings: JHH1 liver cancer cell line, 6 days culture
Procedure: as §1, §2

[16] = system: SNU387; settings: SNU387 liver cancer cell line, 6 days culture
Procedure: as §1, §2

[17] = system: TE-6; settings: TE-6 tumor cell line, 6 days culture
Procedure: as §1, §2

[18] = system: SNU423; settings: SNU423 liver cancer cell line, 6 days culture
Procedure: as §1, §2

[19] = system: SNU182; settings: SNU182 liver cancer cell line, 6 days culture
Procedure: as §1, §2

[20] = system: TE-15; settings: TE-15 tumor cell line, 6 days culture
Procedure: as §1, §2

[21] = system: JHH6; settings: JHH6 liver cancer cell line, 6 days culture
Procedure: as §1, §2

[22] = system: SNU761; settings: SNU761 liver cancer cell line, 6 days culture
Procedure: as §1, §2

[23] = system: HT1080; settings: HT1080 tumor cell line, 6 days culture
Procedure: as §1, §2

[24] = system: LNCAP-clone-FGC; settings: LNCAP-clone-FGC tumor cell line, 6 days culture
Procedure: as §1, §2

[25] = system: JHH4; settings: JHH4 liver cancer cell line, 6 days culture
Procedure: as §1, §2

[26] = system: Li-7; settings: Li-7 liver cancer cell line, 6 days culture
Procedure: as §1, §2

[27] = system: SNU398; settings: SNU398 liver cancer cell line, 6 days culture
Procedure: as §1, §2

Measured: IC50

Cc1ccc(F)c(NC(=O)Nc2ccc(-c3cccc4[nH]nc(NC(=O)CCCCCCCCCCCNC(=O)C[C@H](N)C(=O)N[C@@H](CCC(=O)O)C(=O)O)c34)cc2)c1 [Compound 7]
0.11 µM: [8]
95.5 µM: [24]
79.1 µM: [1]
41.6 µM: [4]
> 100 µM: [2] | [3] | [5] | [6] | [7] | [9] | [10] | [11] | [13] | [14] | [15] | [16] | [17] | [18] | [19] | [20] | [21] | [22] | [23] | [25] | [26] | [27]
72.6 µM: [12]

Cc1ccc(F)c(NC(=O)Nc2ccc(-c3cccc4[nH]nc(NC(=O)CCCCCCCCCCCNC(=O)C[C@H](N)C(=O)O)c34)cc2)c1 [Compound 12]
90.4 µM: [26]
70.5 µM: [24]
> 100 µM: [3] | [5] | [6] | [7] | [9] | [11] | [12] | [13] | [14] | [15] | [16] | [17] | [18] | [19] | [20] | [22] | [23] | [25] | [27]
95.6 µM: [10]
85.8 µM: [21]
0.25 µM: [8]
35.5 µM: [4]
82.5 µM: [1]
97.3 µM: [2]

Cc1ccc(F)c(NC(=O)Nc2ccc(-c3cccc4[nH]nc(NC(=O)CCCCCNC(=O)C[C@H](N)C(=O)N[C@@H](CCC(=O)N[C@@H](CCC(=O)N[C@@H](CCC(=O)N[C@@H](CCC(=O)O)C(=O)O)C(=O)O)C(=O)O)C(=O)O)c34)cc2)c1 [Compound 5]
> 100 µM: [1]; Homo sapiens, 144 h | [2]; Homo sapiens, SNU-354, 144 h | [3]; 144 h | [4]; Homo sapiens, 144 h | [5]; Homo sapiens, 144 h | [6]; Homo sapiens, MG-63, 144 h | [7]; JHH-2, 144 h | [9]; Homo sapiens, SK-HEP1, 144 h | [10]; Homo sapiens, 144 h | [11]; Homo sapiens, SNU-475, 144 h | [12]; 144 h | [13]; Homo sapiens, HuH-6, 144 h | [14]; Homo sapiens, SNU-449, 144 h | [15]; 144 h | [16]; Homo sapiens, SNU-387, 144 h | [17]; Homo sapiens, 144 h | [18]; Homo sapiens, SNU-423, 144 h | [19]; Homo sapiens, SNU-182, 144 h | [20]; Homo sapiens, 144 h | [21]; 144 h | [22]; 144 h | [23]; Homo sapiens, HT-1080, 144 h | [24]; Homo sapiens, 144 h | [25]; JHH-4, 144 h | [26]; 144 h | [27]; Homo sapiens, SNU-398, 144 h
2.81 µM: [8]; Homo sapiens, 144 h
